This assay has as its target T1, purified human HDAC6 (Homo sapiens, UniProt Q9UBN7).
T1 construct: purchased BPS Bioscience 5006
T1 sequence (Q9UBN7 1-1215): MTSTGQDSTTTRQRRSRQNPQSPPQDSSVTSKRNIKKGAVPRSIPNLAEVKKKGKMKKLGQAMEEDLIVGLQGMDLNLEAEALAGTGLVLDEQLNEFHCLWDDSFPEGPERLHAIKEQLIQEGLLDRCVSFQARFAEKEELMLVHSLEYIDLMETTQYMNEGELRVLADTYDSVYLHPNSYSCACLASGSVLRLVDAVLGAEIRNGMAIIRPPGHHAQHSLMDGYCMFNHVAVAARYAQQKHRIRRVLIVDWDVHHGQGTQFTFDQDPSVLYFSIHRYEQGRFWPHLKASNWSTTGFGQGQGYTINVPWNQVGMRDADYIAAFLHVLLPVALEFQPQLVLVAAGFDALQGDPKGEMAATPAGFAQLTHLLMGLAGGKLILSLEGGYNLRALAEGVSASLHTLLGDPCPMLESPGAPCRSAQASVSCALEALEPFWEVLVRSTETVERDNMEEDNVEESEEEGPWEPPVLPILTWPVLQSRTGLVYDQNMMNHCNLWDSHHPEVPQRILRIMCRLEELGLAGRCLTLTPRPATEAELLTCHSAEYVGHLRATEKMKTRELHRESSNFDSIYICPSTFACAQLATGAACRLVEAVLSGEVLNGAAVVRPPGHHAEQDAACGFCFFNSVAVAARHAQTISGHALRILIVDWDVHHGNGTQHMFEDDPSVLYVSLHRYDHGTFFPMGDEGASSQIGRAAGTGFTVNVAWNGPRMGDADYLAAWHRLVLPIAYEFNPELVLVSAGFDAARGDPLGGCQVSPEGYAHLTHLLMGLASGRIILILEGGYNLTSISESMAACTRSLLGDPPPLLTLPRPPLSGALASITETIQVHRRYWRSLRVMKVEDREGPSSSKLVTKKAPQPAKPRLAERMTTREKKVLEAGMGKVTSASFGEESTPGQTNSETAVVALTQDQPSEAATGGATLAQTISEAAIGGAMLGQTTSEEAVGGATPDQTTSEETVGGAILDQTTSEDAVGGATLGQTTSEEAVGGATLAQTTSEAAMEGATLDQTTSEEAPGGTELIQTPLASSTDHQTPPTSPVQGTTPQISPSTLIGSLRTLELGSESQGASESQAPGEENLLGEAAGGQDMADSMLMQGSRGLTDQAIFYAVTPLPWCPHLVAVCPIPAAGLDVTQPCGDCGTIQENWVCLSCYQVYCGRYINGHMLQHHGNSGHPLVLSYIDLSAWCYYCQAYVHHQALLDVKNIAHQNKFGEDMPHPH
In words: HDAC6 Enzyme Assay. Particulars: read-out: Percent Inhibition; for inhibition at 0.412 µM: compound concentration 0.412 μM; for inhibition at 0.37 µM: compound concentration 0.37 μM. Type of assay: biochemical. The gist of the method: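 Readout is AMC fluorescence (Ex 340 nm, Em 460 nm) after trypsin cleavage of the deacetylated Ac-Arg-Gly-Lys(Ac)-AMC product. Reaction: purified human HDAC6, compound or vehicle, 1 hour, 30° C, quenched by trichostatin A. Single-concentration percent inhibition or IC50 calculated versus DMSO-treated samples.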

For 27 compounds, inhibition results are on record in patent publication US8765773B2, “Substituted hydroxamic acids and uses thereof” (Millennium Pharmaceuticals, Inc., priority 2010, dated 2014).

Broadly, the inhibition is the drop in the measured response relative to a control, in per cent.

For `CC(C)n1ccc2ccc(C(=O)NO)cc2c1=O` [Compound I-171, N-hydroxy-2-isopropyl-1-oxo-1,2-dihydroisoquinoline-7-carboxamide], the inhibition at 0.412 µM turned out to be 87%. Same read-out and setting: the result for `O=C(NO)c1ccc2ccn(Cc3ccccc3C(F)(F)F)c(=O)c2c1` [Compound I-172, N-hydroxy-1-oxo-2-[2-(trifluoromethyl)benzyl]-1,2-dihydroisoquinoline-7-carboxamide] reads 94.5%. Consider `NCCCn1ccc2ccc(C(=O)NO)cc2c1=O` [Compound I-173, 2-(3-aminopropyl)-N-hydroxy-1-oxo-1,2-dihydroisoquinoline-7-carboxamide], for which the inhibition at 0.37 µM stood at 75.4%. Same read-out and setting: under `CC(C)C(=O)Nc1cccc(Cn2ccc3ccc(C(=O)NO)cc3c2=O)c1` [Compound I-174, N-hydroxy-2-[3-(isobutyrylamino)benzyl]-1-oxo-1,2-dihydroisoquinoline-7-carboxamide] stands 98.8%. `O=C(NO)c1ccc2ccn(CCOc3ccccc3C(F)(F)F)c(=O)c2c1` [Compound I-175, N-hydroxy-1-oxo-2-{2-[2-(trifluoromethyl)phenoxy]ethyl}-1,2-dihydroisoquinoline-7-carboxamide]: the inhibition at 0.412 µM came to 95.9%. The same measure, in the same setting: under `O=C(NO)c1ccc2ccn(CCCOc3cccc(C(F)(F)F)c3)c(=O)c2c1` [Compound I-176, N-hydroxy-1-oxo-2-{3-[3-(trifluoromethyl)phenoxy]propyl}-1,2-dihydroisoquinoline-7-carboxamide] stands 94.2%. Regarding `Nc1cccc(-c2cccc(Cn3cnc4ccc(C(=O)NO)cc4c3=O)c2)c1` [Compound I-177, 3-[(3′-aminobiphenyl-3-yl)methyl]-N-hydroxy-4-oxo-3,4-dihydroquinazoline-6-carboxamide], the inhibition at 0.37 µM stood at 93.2%. Regarding `O=C(NO)c1ccc2ccn(Cc3ccccc3CS(=O)(=O)c3ccccc3)c(=O)c2c1` [Compound I-178, N-hydroxy-1-oxo-2-{2-[(phenylsulfonyl)methyl]benzyl}-1,2-dihydroisoquinoline-7-carboxamide], the inhibition at 0.412 µM came to 95%. With `O=C(NO)c1ccc2ccn(-c3cccc(Cl)c3)c(=O)c2c1` [Compound I-179, 2-(3-chlorophenyl)-N-hydroxy-1-oxo-1,2-dihydroisoquinoline-7-carboxamide], the inhibition at 0.37 µM was 97.5%. In the case of `O=C(NO)c1ccc2ncn(CCOc3ccccc3)c(=O)c2c1` [Compound I-180, N-hydroxy-4-oxo-3-(2-phenoxyethyl)-3,4-dihydroquinazoline-6-carboxamide], the inhibition at 0.412 µM turned out to be 97%. With `O=C(NO)c1ccc2ncn(Cc3cccc(-c4ccc(F)cc4)c3)c(=O)c2c1` [Compound I-181, 3-[(4′-fluorobiphenyl-3-yl)methyl]-N-hydroxy-4-oxo-3,4-dihydroquinazoline-6-carboxamide], the inhibition at 0.37 µM came out at 92.7%. The same measure, in the same setting: the result for `CC(C)c1cccc(-c2cccc(Cn3cnc4ccc(C(=O)NO)cc4c3=O)c2)c1` [Compound I-182, N-hydroxy-3-[(3′-isopropylbiphenyl-3-yl)methyl]-4-oxo-3,4-dihydroquinazoline-6-carboxamide] reads 78.9%.

Regarding `Cc1nc(-c2ccccc2OCCCn2ccc3ccc(C(=O)NO)cc3c2=O)cs1` [Compound I-183, N-hydroxy-2-{3-[2-(2-methyl-1,3-thiazol-4-yl)phenoxy]propyl}-1-oxo-1,2-dihydroisoquinoline-7-carboxamide], the inhibition at 0.412 µM worked out at 67.4%.

Take `CC(C)(C)OC(=O)N1CCC(Cn2ccc3ccc(C(=O)NO)cc3c2=O)CC1` [Compound I-184, tert-butyl 4-{[7-[(hydroxyamino)carbonyl]-1-oxoisoquinolin-2(1H)-yl]methyl}piperidine-1-carboxylate]: the inhibition at 0.412 µM is 88.9%. Consider `O=C(NO)c1ccc2ncn(Cc3cccc(C(F)(F)F)c3)c(=O)c2c1` [Compound I-185, N-hydroxy-4-oxo-3-[3-(trifluoromethyl)benzyl]-3,4-dihydroquinazoline-6-carboxamide], for which the inhibition at 0.412 µM was 95.5%. Take `CS(=O)(=O)c1ccc(Cn2ccc3ccc(C(=O)NO)cc3c2=O)cc1` [Compound I-186, N-hydroxy-2-[4-(methylsulfonyl)benzyl]-1-oxo-1,2-dihydroisoquinoline-7-carboxamide]: the inhibition at 0.412 µM amounted to 95.5%. Still for that read-out and setting: the result for `O=C(NO)c1ccc2ccn(Cc3c(F)cccc3Cl)c(=O)c2c1` [Compound I-187, 2-(2-chloro-6-fluorobenzyl)-N-hydroxy-1-oxo-1,2-dihydroisoquinoline-7-carboxamide] reads 95.1%.

For `COc1ccc(N(CCCn2ccc3ccc(C(=O)NO)cc3c2=O)C(=O)OC(C)(C)C)cc1` [Compound I-188, tert-butyl {3-[7-[(hydroxyamino)carbonyl]-1-oxoisoquinolin-2(1H)-yl]propyl}(4-methoxyphenyl)carbamate], the inhibition at 0.412 µM stood at 94.4%. In the case of `O=C(NO)c1ccc2ccn(CCOc3ccc(-c4csnn4)cc3)c(=O)c2c1` [Compound I-189, N-hydroxy-1-oxo-2-{2-[4-(1,2,3-thiadiazol-4-yl)phenoxy]ethyl}-1,2-dihydroisoquinoline-7-carboxamide], the inhibition at 0.412 µM was 97.2%.

Turning to `O=C(NO)c1ccc2ccn(Cc3ccc(OC(F)(F)F)cc3)c(=O)c2c1` [Compound I-190, N-hydroxy-1-oxo-2-[4-(trifluoromethoxy)benzyl]-1,2-dihydroisoquinoline-7-carboxamide], the inhibition at 0.412 µM came out at 92.9%. Regarding `O=C(NO)c1ccc2ccn(CCCOc3ccc4c(c3)OCO4)c(=O)c2c1` [Compound I-191, 2-[3-(1,3-benzodioxol-5-yloxy)propyl]-N-hydroxy-1-oxo-1,2-dihydroisoquinoline-7-carboxamide], the inhibition at 0.412 µM amounted to 95.5%. The same measure, in the same setting: under `CN(C)c1nc2cc(C(=O)NO)ccc2c(=O)n1-c1ccccc1` [Compound I-192, 2-(dimethylamino)-N-hydroxy-4-oxo-3-phenyl-3,4-dihydroquinazoline-7-carboxamide] stands 61.5%; under `O=C(NO)c1ccc2ncn(Cc3ccccn3)c(=O)c2c1` [Compound I-193, N-hydroxy-4-oxo-3-(pyridin-2-ylmethyl)-3,4-dihydroquinazoline-6-carboxamide], 79.1%. Consider `O=C(NO)c1ccc2c(=O)n(Cc3ccccc3)c(=O)[nH]c2c1` [Compound I-194, 3-benzyl-N-hydroxy-2,4-dioxo-1,2,3,4-tetrahydroquinazoline-7-carboxamide], for which the inhibition at 0.412 µM was found to be 36.1%. Same read-out and setting: the result for `O=C(NO)c1ccc2c(=O)n(-c3ccccc3)c(=O)[nH]c2c1` [Compound I-195, N-hydroxy-2,4-dioxo-3-phenyl-1,2,3,4-tetrahydroquinazoline-7-carboxamide] reads 16.1%; that for `O=C(NO)c1ccc2ccn(CCOc3cccc4c3CCC4)c(=O)c2c1` [Compound I-196, 2-[2-(2,3-dihydro-1H-inden-4-yloxy)ethyl]-N-hydroxy-1-oxo-1,2-dihydroisoquinoline-7-carboxamide], 95.2%. The same measure, in the same setting: the result for `Cc1ccc(OCCCn2ccc3ccc(C(=O)NO)cc3c2=O)cc1` [Compound I-197, N-hydroxy-2-[3-(4-methylphenoxy)propyl]-1-oxo-1,2-dihydroisoquinoline-7-carboxamide] reads 96.5%.
